Numbered stars: 1 amine (or outer) side, 2 acyl side, 3 side chain; on linkers, the order of the positions; unused ones are H or OH. Square brackets hold non-standard residues; d marks the D form. Ends that are not written are not given here. Peptide text beside a SMILES is read from it. * marks the point of attachment. 3,5‑difluoroPhe/Sta = 3,5-difluorobenzyl statine, O=C(C[C@H](O)[C@H](Cc1cc(F)cc(F)c1)N[*:1])[*:2]; Sta = CC(C)C[C@H](N)[C@@H](O)CC(=O)O; Isovaleryl = CC(C)CC(=O)*
Key:
[1] = target: T1, Human brain β-Secretase (Homo sapiens, UniProt P56817); experiment: MBP-C125 enzyme inhibition assay (ELISA detection of β-secretase cleavage of MBP-C125 substrate); format: biochemical; settings: pH 4.5, 37° C., 90 minutes, read-out: IC50 Grouping
T1 construct: Human brain β-Secretase from concentrated HiQ pool prepared Jul; from tissue; host or cells: human brain
T1 sequence (P56817 46-501): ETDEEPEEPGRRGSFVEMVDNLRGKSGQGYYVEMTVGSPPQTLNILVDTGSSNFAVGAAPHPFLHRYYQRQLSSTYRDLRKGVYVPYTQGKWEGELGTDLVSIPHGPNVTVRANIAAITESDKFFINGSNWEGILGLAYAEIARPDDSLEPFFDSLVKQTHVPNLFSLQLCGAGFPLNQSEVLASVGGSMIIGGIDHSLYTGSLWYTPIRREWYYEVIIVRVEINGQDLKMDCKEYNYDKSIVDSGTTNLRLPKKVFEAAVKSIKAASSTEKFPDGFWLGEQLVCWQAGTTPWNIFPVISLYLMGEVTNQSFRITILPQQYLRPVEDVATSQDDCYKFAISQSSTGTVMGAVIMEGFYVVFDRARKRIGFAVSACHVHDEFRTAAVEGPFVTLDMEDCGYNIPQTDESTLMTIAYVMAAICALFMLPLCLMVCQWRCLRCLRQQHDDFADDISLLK
Procedure: The inhibitory concentration data was obtained by use of the MBP-C125 assay, which determines the relative inhibition of β-secretase cleavage of an MPB-C125 substrate by the compounds assayed. Human brain β-Secretase from concentrated HiQ pool prepared Jul.
Inhibition data was obtained from an ELISA which uses an anti-MBP capture antibody (on precoated and blocked 96-well high binding plates) followed by incubation with diluted enzyme reaction supernatant, incubation with an anti-SW192 specific biotinylated reporter antibody and incubation with streptavidin/alkaline phosphatase. Detection was effected by a fluorescent substrate signal on cleavage by the phosphatase.
Compounds were diluted in a 1:1 dilution series to a six-point concentration curve (two wells per concentration) which took up one 96-plate row per compound tested.
Each of the test compounds was weighed out into a vial and DMSO was added to make up a 10 mM solution. To obtain a final compound concentration of 200 μM at the high point of a 6-point dilution curve, 100 μL of the 10 mM solution was added to well C1 of a 96-well V-bottom plate. Fifty μL of DMSO was added to odd wells of row C across the plate and 1:1 serial dilutions were made. 10 μL of each dilution was added to each of two wells on row C of a corresponding V-bottom plate to which 190 μL of 52 mM NaOAc/7.9% DMSO, pH 4.5 were pre-added. […] The compound concentration in the final enzyme reaction was thus 50 times less than the starting concentration. The final reaction mixture of 200 μM compound for the highest curve point was in 5% DMSO, 20 mM NaAc, 0.06% TX100, at pH 4.5. The enzyme reaction was started by warming the plates to 37° C. After 90 minutes at 37° C., 200 μL/well cold specimen diluent was added to stop the reaction and 20 μL/well was transferred to a corresponding α-MBP coated ELISA plate, containing 80 μL/well specimen diluent. […] The signal was read on a fluorescent plate reader.

[2] = target: β-secretase (Homo sapiens, UniProt P56817); experiment: assays with β-secretase (pepstatin remark); format: biochemical
β-secretase, sequence (P56817 46-501): as above

[3] = target: Human brain β-Secretase (human, UniProt P56817 46-501, limits assumed); experiment: cell-based or functional assay
Human brain β-Secretase (human, UniProt P56817 46-501, limits assumed), sequence (P56817 46-501 limits assumed): as the sequence (P56817 46-501) above

IC50 [1] | Molecule | other results
< 10 µM | 2-carboxy-diphenylether coupled with the peptide 3,5-difluoroPhe/Sta-Val-Ala-Glu-Phe [Example 29] | 
10 to 99 µM | 4-carboxycinnoline coupled to the 3,5-difluoroPhe/Sta-Val-Ala-Glu-Phe [Example 44] | 
< 10 µM | CCCN(CCC)C(=O)c1cccc(CNC(Cc2cc(F)cc(F)c2)C(O)CC(=O)NC(C(=O)NC2CC(C(=O)O)CC(C(=O)O)C2)C(C)C)c1 (stereo not drawn) [Example 54, 3-N,N-di-n-propyl-carboxamidobenzyl-difluorophenylstatine-Val-1-amino-3,5-cis,cis-cyclohexyldicarboxylic acid] | 
10 to 99 µM | geminal dimethyl glutaric dimethylamide group coupled to the derivatized Sta-Val-Ala-Glu-Phe pentapeptide [Example 32] | 

More lines, now with the values behind:

Molecule | IC50 [1] | other results
COC(=O)c1cccc(C(=O)N[C@@H](Cc2cc(F)cc(F)c2)[C@@H](O)CC(=O)N[C@H](C(=O)NC2CC(C(=O)O)C[C@H](C(=O)O)C2)C(C)C)c1 (some centres unmarked) [Example 39] | < 10 µM | 
CC(C)CC(=O)N[C@H](C(=O)N[C@H](C(=O)N[C@@H](CC(C)C)[C@@H](O)CC(=O)N[C@@H](C)C(=O)N[C@@H](CC(C)C)[C@@H](O)CC(=O)O)C(C)C)C(C)C [pepstatin] (Isovaleryl-VV[Sta]A[Sta]-OH) |  | inhibitory activity in assays with β-secretase [2]: no inhibitory activity
glutaric acid piperidine amide coupled with the derivatized Sta-Val-Ala-Glu-Phe pentapeptide [Example 33] | 10 to 99 µM | 
{2‑carboxy‑diphenylether}-[3,5‑difluoroPhe/Sta]VAEF [Example 29: 2-carboxy-diphenylether coupled with the peptide 3,5-difluoroPhe/Sta-Val-Ala-Glu-Phe] |  | IC50 Grouping (MBP-C125 enzyme inhibition assay, ELISA read-out) [3]: < 10 µM

Source: patent publication US7276484B2, “Dipeptide inhibitors of β-secretase” (Elan Pharmaceuticals, Inc., priority 1999, dated 2007)
